Assay results reported in article PMC8036727, “In Vitro Anticancer Potential of Jasione montana and Its Main Components against Human Amelanotic Melanoma Cells” (International Journal of Molecular Sciences, 2021).
≈ marks a conversion by molar mass, not a printed value. Where a name gives a salt, the structure may show the parent alone.

Legend:
[1] = tested on: human amelanotic melanoma cell line C32 (CRL-1585); experiment: Fixable viability stain (FVS520) cytotoxicity assay, flow cytometry; type: cell-based; conditions: C32 cells, 24 h, 10–300 μg/mL, mean ± SD
Procedure: (§1) The human amelanotic melanoma cell line C32 (CRL-1585) and a normal human fibroblast cell line (PCS-201-012) were cultured in DMEM. DMEM was blended with 10% FBS, 10 µg/mL streptomycin, and […] penicillin. The cells were cultured in 5% CO2 and fully humidified at 37 °C. All tested compounds were used at a final DMSO concentration of not more than 0.5% (v/v). Cells cultured in drug-free DMEM were used as controls, and cells with the addition of only DMSO were used as solvent-controls; VLB was used as a positive control. The JM4 fraction was analyzed at the following concentrations: 25, 50 and 100 µg/mL and compound 22 and VLB were analyzed at 25 µg/mL. For the cytotoxicity assay, all extracts and compounds were tested at the following concentrations: 10, 25, 50, 100, 200, and 300 µg/mL.
This analysis was performed to estimate the level of viable cells after treatment with JM1–JM6, compounds 9, 12, 22 and VLB at concentrations ranging from 10 to 300 µg/mL. Cytotoxicity was evaluated by FVS520 via a flow cytometer (BD FACSCanto II flow cytometer, San Jose, CA, USA). In contrast to nonpermeable live cells, the permeable membranes of necrotic cells allow for the intracellular diffusion of FVS520 and the covalent binding of high concentrations of amines. Thus, necrotic cells contained a higher level of FVS520 and, consequently, increased fluorescence intensity than viable cells. After 24 h of incubation, C32 cells and fibroblasts were washed with PBS, trypsinized and resuspended in DMEM. The supernatant was removed, and 0.5 mL of Stain Buffer with the addition of 1 µL of FVS520 was added to each sample, which was vortexed immediately and kept for 10–15 min in the dark at room temperature. After incubation and the addition of 2 mL of PBS, the supernatant was removed, the cells were resuspended in 300 µL of PBS and then immediately subjected to analysis. The results were analyzed based on FACSDiva software (BD Biosciences Systems, San Jose, CA, USA). Based on the results of the cytotoxicity analysis, further research in this project focused on the determination of the full anticancer mechanism of the most promising fraction JM4 and compound 22.

C32 melanoma cells [2] = experiment: Annexin V-FITC/PI binding apoptosis assay, flow cytometry; type: cell-based, human; conditions: 25 μg/mL, 24 h; for apoptotic cells: untreated control 7.3 ± 1.3%
Procedure: During programmed cell death, annexin V has a high affinity for phosphatidylserine (PS) when it is exposed to the extracellular environment. […] The assay allows differentiability between viable cells (annexin V–/PI–) and early (annexin V–/PI+) and late (annexin V+/PI+) apoptotic cells, as well as necrotic cells (annexin V–/PI+).
The human amelanotic melanoma cell line C32 (CRL-1585) and a normal human fibroblast cell line (PCS-201-012) were cultured in DMEM. DMEM was blended with 10% FBS, 10 µg/mL streptomycin, and 10 units/mol penicillin. The cells were cultured in 5% CO2 and fully humidified at 37 °C. All tested compounds were used at a final DMSO concentration of not more than 0.5% (v/v). Cells cultured in drug-free DMEM were used as controls, and cells with the addition of only DMSO were used as solvent-controls; VLB was used as a positive control.
Characterization of the mode of apoptosis induced by JM4, 22 and VLB was performed in C32 cells via flow cytometry using a FITC Annexin V Apoptosis Detection Kit II. All stages of programmed cell death could be identified by annexin V bound with high affinity to PS. PI is a standard flow cytometric viability explorer that stains cells that interfere with the cell membrane, and it can be used to distinguish necrotic cells from dead cells. After the C32 cells were incubated for 24 h with various concentrations of JM4, 22 and VLB, they were trypsinized and resuspended in binding buffer. After that, 5 µL of annexin V-FITC and 5 µL of PI were added and maintained for 15 min in the dark at room temperature. The results were analyzed using FACSDiva software.

[3] = tested on: caspase-9 in C32 melanoma cells; experiment: FLICA Caspase-9 assay, flow cytometry; type: cell-based, human; conditions: 25 μg/mL, 24 h
Procedure: (§2) The human amelanotic melanoma cell line C32 (CRL-1585) and a normal human fibroblast cell line (PCS-201-012) were cultured in DMEM. […] Cells cultured in drug-free DMEM were used as controls, and cells with the addition of only DMSO were used as solvent-controls; VLB was used as a positive control. The JM4 fraction was analyzed at the following concentrations: 25, 50 and 100 µg/mL and compound 22 and VLB were analyzed at 25 µg/mL. For the cytotoxicity assay, all extracts and compounds were tested at the following concentrations: 10, 25, 50, 100, 200, and 300 µg/mL. Determination of the caspase-3, caspase-8, caspase-9, and caspase-10 activity were carried out by the following kits: FLICA Caspase-3/7 Assay Kit, FLICA Caspase-8 Assay Kit, FLICA Caspase-9 Assay Kit, and FLICA Caspase-10 Assay Kit using a BD FACSCanto II flow cytometer. […] After 1 h, the cells were flushed with apoptosis wash buffer and resuspended in […] of the same reagent with […] PI. The procedure of determining the activity of each caspase was carried out analogously. The results were analyzed with FACSDiva software.

C32 melanoma cells [4] = experiment: Cell cycle analysis by PI staining, flow cytometry; type: cell-based, human; conditions: 25 μg/mL, 24 h
Procedure: The human amelanotic melanoma cell line C32 (CRL-1585) and a normal human fibroblast cell line (PCS-201-012) were cultured in DMEM. […] Cells cultured in drug-free DMEM were used as controls, and cells with the addition of only DMSO were used as solvent-controls; VLB was used as a positive control. The JM4 fraction was analyzed at the following concentrations: 25, 50 and 100 µg/mL and compound 22 and VLB were analyzed at 25 µg/mL. For the cytotoxicity assay, all extracts and compounds were tested at the following concentrations: 10, 25, 50, 100, 200, and 300 µg/mL. The allocation of cell cycle stage was analyzed on a FACSCanto II flow cytometer. C32 cells were cured with JM4, 22 and VLB for 24 h of incubation. Thereafter, the cells were harvested and adjusted with 1 mL of 70% EtOH and maintained at −20 °C for 24 h. Next, the cells were washed with PBS, treated with 50 µg/mL DNase-free RNase A solution for 5 min at room temperature, stained with 100 µg/mL PI for 30 min at 37 °C, and submitted to flow cytometry analysis. The results were analyzed with FACSDiva software.

[5] = tested on: normal human fibroblast cell line (PCS-201-012); experiment: Fixable viability stain (FVS520) cytotoxicity assay, flow cytometry; type: cell-based; conditions: normal human fibroblasts, 24 h, 10–300 μg/mL
Procedure: The human amelanotic melanoma cell line C32 (CRL-1585) and a normal human fibroblast cell line (PCS-201-012) were cultured in DMEM. […] Cells cultured in drug-free DMEM were used as controls, and cells with the addition of only DMSO were used as solvent-controls; VLB was used as a positive control. The JM4 fraction was analyzed at the following concentrations: 25, 50 and 100 µg/mL and compound 22 and VLB were analyzed at 25 µg/mL. For the cytotoxicity assay, all extracts and compounds were tested at the following concentrations: 10, 25, 50, 100, 200, and 300 µg/mL. […] Cytotoxicity was evaluated by FVS520 via a flow cytometer (BD FACSCanto II flow cytometer, San Jose, CA, USA). In contrast to nonpermeable live cells, the permeable membranes of necrotic cells allow for the intracellular diffusion of FVS520 and the covalent binding of high concentrations of amines. Thus, necrotic cells contained a higher level of FVS520 and, consequently, increased fluorescence intensity than viable cells. After 24 h of incubation, C32 cells and fibroblasts were washed with PBS, trypsinized and resuspended in DMEM. […] After incubation and the addition of 2 mL of PBS, the supernatant was removed, the cells were resuspended in 300 µL of PBS and then immediately subjected to analysis. The results were analyzed based on FACSDiva software (BD Biosciences Systems, San Jose, CA, USA). […]

C32 melanoma cells [6] = experiment: Mitochondrial membrane potential (MMP), JC-1 MitoScreen, flow cytometry; type: cell-based, human; conditions: 25 μg/mL, 24 h; untreated control 5.2 ± 0.1%
Procedure: The human amelanotic melanoma cell line C32 (CRL-1585) and a normal human fibroblast cell line (PCS-201-012) were cultured in DMEM. […] Cells cultured in drug-free DMEM were used as controls, and cells with the addition of only DMSO were used as solvent-controls; VLB was used as a positive control. The JM4 fraction was analyzed at the following concentrations: 25, 50 and 100 µg/mL and compound 22 and VLB were analyzed at 25 µg/mL. For the cytotoxicity assay, all extracts and compounds were tested at the following concentrations: 10, 25, 50, 100, 200, and 300 µg/mL. […] After incubation, the cells were flushed again, resuspended in PBS, and immediately subjected to BD FACSCanto II flow cytometry analysis. The results were analyzed using FACSDiva.

[7] = tested on: caspase-8 in C32 melanoma cells; experiment: FLICA Caspase-8 assay, flow cytometry; type: cell-based, human; conditions: 25 μg/mL, 24 h
Procedure: as §2

[8] = tested on: caspase-10 in C32 melanoma cells; experiment: FLICA Caspase-10 assay, flow cytometry; type: cell-based, human; conditions: 25 μg/mL, 24 h
Procedure: as §2

C32 melanoma cells [9] = experiment: Autophagy Assay, Red, flow cytometry; type: cell-based, human; conditions: 25 μg/mL, 24 h
Procedure: as §1
An autophagy assay was carried out to detect the impact of JM4, compound 22, and VLB on the autophagy process of C32 cells via flow cytometry using an Autophagy Assay, Red kit. The probe is a cell-permeable aliphatic molecule that brightly fluoresces after unjumbling […] and autolysosomes into lipid membranes. […] The results were analyzed with FACSDiva software.

[10] = tested on: caspase-3 in C32 melanoma cells; experiment: FLICA Caspase-3/7 assay, flow cytometry; type: cell-based, human; conditions: 25 μg/mL, 24 h; untreated control 4.2 ± 1.3%
Procedure: as §1
Determination of the caspase-3, caspase-8, caspase-9, and caspase-10 activity were carried out by the following kits: FLICA Caspase-3/7 Assay Kit, FLICA Caspase-8 Assay Kit, FLICA Caspase-9 Assay Kit, and FLICA Caspase-10 Assay Kit using a BD FACSCanto II flow cytometer. C32 cells were incubated with JM4, compound 22 and VLB for 24 h, washed twice with PBS, resuspended in buffer supplemented with […] of FLICA reagent, and incubated. […] The results were analyzed with FACSDiva software.

How did the IC50 [1] turn out when `O=c1cc(-c2ccc(O)c(O)c2)oc2cc(OC3OC(CO)C(O)C(O)C3OC3OCC(O)C(O)C3O)cc(O)c12` [Compound 9, luteolin 7-O-β-D-xylosyl-(1-2)-β-D-glucoside] was run?
Its IC50 is over 300 µg/mL.

For `O=c1cc(-c2ccc(O)c(O)c2)oc2cc(OC3OC(CO)C(O)C(O)C3O)cc(O)c12` [Compound 12, luteolin 7-O-β-D-glucoside], which IC50 [1] is on record?
The IC50 was over 300 µg/mL.

For `O=c1cc(-c2ccc(O)c(O)c2)oc2cc(O)cc(O)c12` [Compound 22, luteolin], which apoptotic cells (C32 melanoma cells [2]) is on record?
Its apoptotic cells is 29.2 ± 3.0%.

What about the “cells with active caspase-9” value [3] of the same compound?
Its value is 16.6 ± 0.8%.

What about the “percentage of C32 cells in G2/M phase” value (C32 melanoma cells [4]; untreated control 6.1 ± 0.6%) of the same compound?
The value was 14.6 ± 1.5%.

And the “percentage of C32 cells in G1 phase” value (C32 melanoma cells [4]; untreated control 73.0 ± 0.9%)?
The value was 35.3 ± 3.0%.

What about the IC50 [5] of the same compound?
The IC50 was 194 ± 4.4 µg/mL (≈ 678 µM).

What about the “cells with a reduced MMP” value (C32 melanoma cells [6]) of the same compound?
Its value is 31.8 ± 0.7%.

And the “cells with active caspase-8” value [7]?
Its value is 20.2 ± 1.5%.

What about the “cells with active caspase-10” value [8] of the same compound?
Its value is 15.4 ± 0.7%.

What about the IC50 [1] of the same compound?
Its IC50 is 95.1 ± 7.2 µg/mL (≈ 332 µM).

With `CC[C@]1(O)C[C@@H]2CN(CCc3c([nH]c4ccccc34)[C@@](C(=O)OC)(c3cc4c(cc3OC)N(C)[C@H]3[C@@](O)(C(=O)OC)[C@H](OC(C)=O)[C@]5(CC)C=CCN6CC[C@]43[C@@H]65)C2)C1` [VLB, vinblastine sulfate] as the compound, how does the autophagic cells (C32 melanoma cells [9]; untreated control 4.8 ± 0.8%) read?
Its autophagic cells is 76.7 ± 0.5%.

What about the nonautophagic cells (C32 melanoma cells [9]; untreated control 94.5 ± 1.0%) of the same compound?
Its nonautophagic cells is 22.4 ± 0.6%.

What about the necrotic cells (C32 melanoma cells [2]) of the same compound?
The necrotic cells was 4.2 ± 1.0%.

And the apoptotic cells (C32 melanoma cells [2])?
The apoptotic cells was 27.4 ± 1.0%.

And the “cells with active caspase-3” value [10]?
Its value is 23.4 ± 3.5%.

What about the “cells with a reduced MMP” value (C32 melanoma cells [6]) of the same compound?
Its value is 34.1 ± 3.0%.

And the IC50 [1]?
The IC50 was 148 ± 7.7 µg/mL.
